Literature values as cited in patent US20080161587A1, “Crystallization method for purification of calcipotriene” (Teva Pharmaceuticals USA, Inc., priority 2002, published 2008).

solubility in highly apolar solvents (highly a polar solvents (e.g. hydrocarbons)): essentially insoluble | solubility in alcoholic solvents (methanol, ethanol, and isopropanol (IPA)): highly soluble
SMILES: C=C1/C(=C\C=C2/CCC[C@]3(C)[C@@H]([C@H](C)/C=C/[C@@H](O)C4CC4)CC[C@@H]23)C[C@@H](O)C[C@@H]1O [calcipotriene, (5Z, 7E, 22E, 24S)-24-cyclopropyl-9,10-secochola-5,7,10(19), 22-tetraene-1α, 3β, 24-triol]
solubility of calcipotriene in methyl formate (solvent methyl formate): about 1 g calcipotriene/150 mL of methyl formate
